This assay addresses human LPAR1 (Homo sapiens (Human), UniProt Q92633). The assay can be described thus: LPAR1 intracellular calcium mobilization assay (antagonist mode, FLIPR). Type of assay: cell-based. As to conditions: CHO-K1 EDG2 cells expressing human LPAR1, LPA 18:2 at EC80 (100 nM), test compound 0.5 nM to 10 μM. On the technique in general: A change in cytosolic calcium serves as a functional read-out for many receptors and channels.
human LPAR1, sequence (Q92633 whole entry): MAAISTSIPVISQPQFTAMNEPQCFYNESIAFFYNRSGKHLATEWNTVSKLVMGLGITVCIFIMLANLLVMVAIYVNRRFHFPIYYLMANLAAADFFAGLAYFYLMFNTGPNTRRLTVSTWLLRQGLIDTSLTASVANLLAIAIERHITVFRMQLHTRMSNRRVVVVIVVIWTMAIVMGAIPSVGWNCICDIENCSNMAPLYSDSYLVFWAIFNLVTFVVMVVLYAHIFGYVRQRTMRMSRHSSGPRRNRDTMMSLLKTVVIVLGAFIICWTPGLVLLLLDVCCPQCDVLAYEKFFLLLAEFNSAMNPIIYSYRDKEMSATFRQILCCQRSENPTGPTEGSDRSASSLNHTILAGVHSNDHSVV
As to `C[C@@H](OC(=O)Nc1c(-c2ccc(NC(=O)C3(C#N)CC(O)C3)cn2)nnn1C)c1cccnc1Cl` (stereo partly drawn) [Compound 135, (R)-1-(2-chloropyridin-3-yl)ethyl (4-(5-(1-cyano-3-hydroxycyclobutane-1-carboxamido)pyridin-2-yl)-1-methyl-1H-1,2,3-triazol-5-yl)carbamate], the EC50 (as a rule, the concentration at which the effect is half-maximal) is 726 nM.
With `C[C@@H](OC(=O)Nc1c(-c2ccc(NC(=O)C3CC(O)(C(F)(F)F)C3)cn2)nnn1C)c1cccnc1Cl` (stereo partly drawn) [Compound 136, (R)-1-(2-chloropyridin-3-yl)ethyl (4-(5-(3-hydroxy-3-(trifluoromethyl)cyclobutane-1-carboxamido)pyridin-2-yl)-1-methyl-1H-1,2,3-triazol-5-yl)carbamate] the figure was 602 nM; with `C[C@@H](OC(=O)Nc1c(-c2ccc(NC(=O)[C@@H]3C[C@@H]3C#N)cn2)nnn1C)c1cccnc1Cl` [Compound 137, (R)-1-(2-chloropyridin-3-yl)ethyl (4-(5-((1R,2S)-2-cyanocyclopropane-1-carboxamido)pyridin-2-yl)-1-methyl-1H-1,2,3-triazol-5-yl)carbamate], 1090 nM.
For `CO[C@]1(C#N)C[C@H](C(=O)Nc2ccc(-c3nnn(C)c3NC(=O)O[C@H](C)c3cccnc3Cl)nc2)C1` [Compound 138, (R)-1-(2-chloropyridin-3-yl)ethyl (4-(5-((1s,3S)-3-cyano-3-methoxycyclobutane-1-carboxamido)pyridin-2-yl)-1-methyl-1H-1,2,3-triazol-5-yl)carbamate], the EC50 was determined as 84.9 nM.
For the compound `C[C@@H](OC(=O)Nc1c(-c2ccc(NC(=O)[C@H]3C[C@](O)(C#N)C3)cn2)nnn1C)c1cccnc1Cl` [Compound 140, (R)-1-(2-chloropyridin-3-yl)ethyl (4-(5-((1s,3S)-3-cyano-3-hydroxycyclobutane-1-carboxamido)pyridin-2-yl)-1-methyl-1H-1,2,3-triazol-5-yl)carbamate], the EC50 stood at 349 nM.
On to `C[C@@H](OC(=O)Nc1c(-c2ccc(NC(=O)C3(C#N)CC(=O)C3)cn2)nnn1C)c1cccnc1Cl` [Compound 141, (R)-1-(2-chloropyridin-3-yl)ethyl (4-(5-(1-cyano-3-oxocyclobutane-1-carboxamido)pyridin-2-yl)-1-methyl-1H-1,2,3-triazol-5-yl)carbamate], for which the EC50 came out at 459 nM.
Consider `C[C@@H](OC(=O)Nc1c(-c2ccc(NC(=O)C3CCC3C#N)cn2)nnn1C)c1cccnc1Cl` (stereo partly drawn) [Compound 142, (R)-1-(2-chloropyridin-3-yl)ethyl (4-(5-(2-cyanocyclobutane-1-carboxamido)pyridin-2-yl)-1-methyl-1H-1,2,3-triazol-5-yl)carbamate], for which the EC50 came to 217 nM.
With `CC(C#N)C(=O)Nc1ccc(-c2nnn(C)c2NC(=O)O[C@H](C)c2cccnc2Cl)nc1` (stereo partly drawn) [Compound 143, (R)-1-(2-chloropyridin-3-yl)ethyl (4-(5-(2-cyanopropanamido)pyridin-2-yl)-1-methyl-1H-1,2,3-triazol-5-yl)carbamate] the figure was 189 nM; with `C[C@@H](OC(=O)Nc1c(-c2ccc(NC(=O)C3(C)CC(F)(F)C3)cn2)nnn1C)c1cccnc1Cl` [Compound 144, (R)-1-(2-chloropyridin-3-yl)ethyl (4-(5-(3,3-difluoro-1-methylcyclobutane-1-carboxamido)pyridin-2-yl)-1-methyl-1H-1,2,3-triazol-5-yl)carbamate], 36.1 nM.
Turning to `C[C@@H](OC(=O)Nc1c(-c2ccc(NC(=O)C3(C#N)C(C#N)C3(C)C)cn2)nnn1C)c1cccnc1Cl` (stereo partly drawn) [Compound 145, (R)-1-(2-chloropyridin-3-yl)ethyl (4-(5-(1,3-dicyano-2,2-dimethylcyclopropane-1-carboxamido)pyridin-2-yl)-1-methyl-1H-1,2,3-triazol-5-yl)carbamate], the EC50 stood at 184 nM.
For the compound `C[C@@H](OC(=O)Nc1c(-c2ccc(NC(=O)C3(C#N)CC3(C)C)cn2)nnn1C)c1cccnc1Cl` (stereo partly drawn) [Compound 146, (R)-1-(2-chloropyridin-3-yl)ethyl (4-(5-(1-cyano-2,2-dimethylcyclopropane-1-carboxamido)pyridin-2-yl)-1-methyl-1H-1,2,3-triazol-5-yl)carbamate], the EC50 was 271 nM.
The figure for `C[C@@H](OC(=O)Nc1c(-c2ccc(NC(=O)C3(C#N)CC3C(F)(F)F)cn2)nnn1C)c1cccnc1Cl` (stereo partly drawn) [Compound 147, (R)-1-(2-chloropyridin-3-yl)ethyl (4-(5-(1-cyano-2-(trifluoromethyl)cyclopropane-1-carboxamido)pyridin-2-yl)-1-methyl-1H-1,2,3-triazol-5-yl)carbamate] is 33.9 nM; for `CC1CC1(C#N)C(=O)Nc1ccc(-c2nnn(C)c2NC(=O)O[C@H](C)c2cccnc2Cl)nc1` (stereo partly drawn) [Compound 148, (R)-1-(2-chloropyridin-3-yl)ethyl (4-(5-(1-cyano-2-methylcyclopropane-1-carboxamido)pyridin-2-yl)-1-methyl-1H-1,2,3-triazol-5-yl)carbamate] it is 30.4 nM; for `C[C@@H](OC(=O)Nc1c(-c2ccc(NC(=O)C3CC34CC4)cn2)nnn1C)c1cccnc1Cl` (stereo partly drawn) [Compound 149, (R)-1-(2-chloropyridin-3-yl)ethyl (1-methyl-4-(5-(spiro[2.2]pentane-1-carboxamido)pyridin-2-yl)-1H-1,2,3-triazol-5-yl)carbamate] it is 329 nM.
Consider `C[C@@H](OC(=O)Nc1c(-c2ccc(NC(=O)[C@@H]3CNC(=O)C3)cn2)nnn1C)c1cccnc1Cl` [Compound 150, (R)-1-(2-chloropyridin-3-yl)ethyl (1-methyl-4-(5-((S)-5-oxopyrrolidine-3-carboxamido)pyridin-2-yl)-1H-1,2,3-triazol-5-yl)carbamate], for which the EC50 came out at 880 nM.
For the compound `C[C@@H](OC(=O)Nc1c(-c2ccc(NC(=O)[C@@H]3CCC(=O)N3)cn2)nnn1C)c1cccnc1Cl` [Compound 151, (R)-1-(2-chloropyridin-3-yl)ethyl (1-methyl-4-(5-((S)-5-oxopyrrolidine-2-carboxamido)pyridin-2-yl)-1H-1,2,3-triazol-5-yl)carbamate], the EC50 came to 3150 nM.
For the compound `C[C@@H](OC(=O)Nc1c(-c2ccc(NC(=O)[C@H]3CCC(=O)N3)cn2)nnn1C)c1cccnc1Cl` [Compound 152, (R)-1-(2-chloropyridin-3-yl)ethyl (1-methyl-4-(5-((R)-5-oxopyrrolidine-2-carboxamido)pyridin-2-yl)-1H-1,2,3-triazol-5-yl)carbamate], the EC50 worked out at 3990 nM.
In the case of `C[C@@H](OC(=O)Nc1c(-c2ccc(NC(=O)C3OCCO3)cn2)nnn1C)c1cccnc1Cl` [Compound 153, (R)-1-(2-chloropyridin-3-yl)ethyl (4-(5-(1,3-dioxolane-2-carboxamido)pyridin-2-yl)-1-methyl-1H-1,2,3-triazol-5-yl)carbamate], the 50% effective concentration (EC50) came out at 933 nM.
The figure for `C[C@@H](OC(=O)Nc1c(-c2ccc(NC(=O)[C@H]3C[C@H](O)C3)cn2)nnn1C)c1cccnc1Cl` [Compound 154, (R)-1-(2-chloropyridin-3-yl)ethyl (4-(5-((1r,3R)-3-hydroxycyclobutane-1-carboxamido)pyridin-2-yl)-1-methyl-1H-1,2,3-triazol-5-yl)carbamate] is 668 nM; for `C[C@@H](OC(=O)Nc1c(-c2ccc(NC(=O)[C@H]3C[C@@H](O)C3)cn2)nnn1C)c1cccnc1Cl` [Compound 155, (R)-1-(2-chloropyridin-3-yl)ethyl (4-(5-((1s,3S)-3-hydroxycyclobutane-1-carboxamido)pyridin-2-yl)-1-methyl-1H-1,2,3-triazol-5-yl)carbamate] it is 748 nM.
`CO[C@H]1C[C@H](C(=O)Nc2ccc(-c3nnn(C)c3NC(=O)O[C@H](C)c3cccnc3Cl)nc2)C1` [Compound 156, (R)-1-(2-chloropyridin-3-yl)ethyl (4-(5-((1r,3R)-3-methoxycyclobutane-1-carboxamido)pyridin-2-yl)-1-methyl-1H-1,2,3-triazol-5-yl)carbamate]: the EC50 is 50.7 nM.
`CO[C@H]1C[C@@H](C(=O)Nc2ccc(-c3nnn(C)c3NC(=O)O[C@H](C)c3cccnc3Cl)nc2)C1` [Compound 157, (R)-1-(2-chloropyridin-3-yl)ethyl (4-(5-((1s,3S)-3-methoxycyclobutane-1-carboxamido)pyridin-2-yl)-1-methyl-1H-1,2,3-triazol-5-yl)carbamate]: the EC50 was found to be 74.5 nM.
With `C[C@@H](OC(=O)Nc1c(-c2ccc(NC(=O)C3[C@@H]4COC[C@@H]34)cn2)nnn1C)c1cccnc1Cl` (stereo partly drawn) [Compound 158, (R)-1-(2-chloropyridin-3-yl)ethyl (4-(5-((1R,5R)-3-oxabicyclo[3.1.0]hexane-6-carboxamido)pyridin-2-yl)-1-methyl-1H-1,2,3-triazol-5-yl)carbamate] the figure was 117 nM.
The figure for `C[C@@H](OC(=O)Nc1c(-c2ccc(NC(=O)C3C4CCOC43)cn2)nnn1C)c1cccnc1Cl` (stereo partly drawn) [Compound 159, (R)-1-(2-chloropyridin-3-yl)ethyl (4-(5-(2-oxabicyclo[3.1.0]hexane-6-carboxamido)pyridin-2-yl)-1-methyl-1H-1,2,3-triazol-5-yl)carbamate] is 394 nM; for `Cc1cc(C2(C(=O)Nc3ccc(-c4nnn(C)c4NC(=O)O[C@H](C)c4cccnc4Cl)nc3)CC2)on1` [Compound 160, (R)-1-(2-chloropyridin-3-yl)ethyl (1-methyl-4-(5-(1-(3-methylisoxazol-5-yl)cyclopropane-1-carboxamido)pyridin-2-yl)-1H-1,2,3-triazol-5-yl)carbamate] it is 1450 nM; for `C[C@@H](OC(=O)Nc1c(-c2ccc(NC(=O)[C@@H]3C[C@H]3F)cn2)nnn1C)c1cc(F)cnc1F` [Compound 161, (R)-1-(2,5-difluoropyridin-3-yl)ethyl (4-(5-((1S,2R)-2-fluorocyclopropane-1-carboxamido)pyridin-2-yl)-1-methyl-1H-1,2,3-triazol-5-yl)carbamate] it is 66.8 nM.
As to `C[C@@H](OC(=O)Nc1c(-c2ccc(NC(=O)C34CC(C#N)(C3)C4)cn2)nnn1C)c1cc(F)cnc1F` [Compound 162, (R)-1-(2,5-difluoropyridin-3-yl)ethyl (4-(5-(3-cyanobicyclo[1.1.1]pentane-1-carboxamido)pyridin-2-yl)-1-methyl-1H-1,2,3-triazol-5-yl)carbamate], the EC50 worked out at 84.7 nM.

For the origin of these results see patent US11912686B2 (Gilead Sciences, Inc., priority 2020, dated 2024).
